Patent US20150023972A1, “COMBINATION PHARMACEUTICAL COMPOSITION AND METHODS OF TREATING AND PREVENTING THE INFECTIOUS DISEASES” (priority 2010, published 2015)
Like-named read-outs stand apart in the source and are kept apart here. Marks after values point to notes of the source that are not given here.

Tests used:
[1] = test system: influenza virus A/California/07/2009swl (H1N1); type: in vivo, mice; settings: 10th day after infection; for Survival, % 10LD50: female Balb/c mice, intragastric
[2] = test system: influenza virus A/California/07/2009swl (H1N1); type: in vivo, mice; settings: 10th day after infection; for Survival, % 10LD50: female Balb/c mice, intragastric; remark: listed apart in the source
influenza = assay: open-label comparative controlled clinical study versus Tamiflu in influenza; type: in vivo, human
[3] = Morning Day 1, 37.0° C. and lower

## CCOC(=O)C1=C[C@@H](OC(CC)CC)[C@H](NC(C)=O)[C@@H](N)C1 [Oseltamivir]
[1]; stage 1
  Difference between % of survival in the group that received medication and % of survival in the group that received distilled water: +60%
  Survival, % 10LD50: 80* %
[1]; stage 2
  Difference between % of survival in the group that received medication and % of survival in the group that received distilled water: +65%
  Survival, % 10LD50: 70* %
[2]; stage 1
  Difference between % of survival in the group that received medication and % of survival in the group that received distilled water: +60%
  Survival, % 10LD50: 80* %
[2]; stage 2
  Difference between % of survival in the group that received medication and % of survival in the group that received distilled water: +65%
  Survival, % 10LD50: 70* %
influenza; Evening Day 2
  Mean values of body temperature, M ± SD: 36.9 ± 0.53 °C
  Proportion of patients with normal temperature, %: 45.5%
  The number of patients with normal temperature: 5
influenza; Evening, Day 1
  Mean values of body temperature, M ± SD: 37.3 ± 0.71 °C
  Proportion of patients with normal temperature, %: 9.1%
  The number of patients with normal temperature: 1
influenza; Evening, Day 3
  Mean values of body temperature, M ± SD: 36.7 ± 0.46 °C
  Proportion of patients with normal temperature, %: 54.5%
  The number of patients with normal temperature: 6
influenza; Evening, Day 4
  Mean values of body temperature, M ± SD: 36.5 ± 0.38 °C
  Proportion of patients with normal temperature, %: 80.0%
  The number of patients with normal temperature: 8
influenza; Evening, Day 5
  Mean values of body temperature, M ± SD: 36.5 ± 0.21 °C
  Proportion of patients with normal temperature, %: 90.0%
  The number of patients with normal temperature: 9
influenza; Evening, Day 6
  Mean values of body temperature, M ± SD: 36.3 ± 0.19 °C
  Proportion of patients with normal temperature, %: 100.0%
  The number of patients with normal temperature: 7
influenza; Evening, Day 7
  Mean values of body temperature, M ± SD: 36.6 ± 0.12 °C
  Proportion of patients with normal temperature, %: 100.0%
  The number of patients with normal temperature: 4
influenza; Morning Day 1
  Mean values of body temperature, M ± SD: 38.1 ± 0.82 °C
influenza; [3]
  Proportion of patients with normal temperature, %: 0%
  The number of patients with normal temperature: 0
influenza; Morning Day 2
  Mean values of body temperature, M ± SD: 37.3 ± 0.72 °C
  Proportion of patients with normal temperature, %: 36.4%
  The number of patients with normal temperature: 4
influenza; Morning Day 3
  Mean values of body temperature, M ± SD: 36.9 ± 0.47 °C
  Proportion of patients with normal temperature, %: 45.5%
  The number of patients with normal temperature: 5
influenza; Morning Day 4
  Mean values of body temperature, M ± SD: 36.8 ± 0.37 °C
  Proportion of patients with normal temperature, %: 90.9%
  The number of patients with normal temperature: 10
influenza; Morning Day 5
  Mean values of body temperature, M ± SD: 36.7 ± 0.25 °C
  Proportion of patients with normal temperature, %: 90.0%
  The number of patients with normal temperature: 9
influenza; Morning Day 6
  Mean values of body temperature, M ± SD: 36.6 ± 0.21 °C
  Proportion of patients with normal temperature, %: 100.0%
  The number of patients with normal temperature: 9
influenza; Morning Day 7
  Mean values of body temperature, M ± SD: 36.5 ± 0.10 °C
  Proportion of patients with normal temperature, %: 100.0%
  The number of patients with normal temperature: 5
influenza; Morning Day 8
  Mean values of body temperature, M ± SD: 36.5 ± 0.14 °C
  Proportion of patients with normal temperature, %: 100.0%
  The number of patients with normal temperature: 3
influenza; by the morning of Day 4 of the therapy
  mean number of antipyretic intakes: 7.4±0.90
influenza; influenza
  Bacterial complications, Otitis, %: 0/0%
  Bacterial complications, Pneumonia, %: 9.1%
  Bacterial complications, Total, %: 27.2%
  Bacterial complications, Tracheitis, %: 18.2%
